According to PubChem BioAssay AID1963842 (Molecular Pharmacology Branch, DTP, NCI, 2024):

Test system: 677734-321-R-J1-PDC complex spheroid viability
Assay: Anticancer human tumor 677734-321-R-J1-PDC patient-derived soft tissue sarcoma cell line growth inhibition [POLQ]
Settings: for IC50: curve of first compound; for viability, T/C: stronger effect = lower value
How it was run: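 Patient-derived tumour cells were co-cultured with HUVEC and mesenchymal stem cells as multicellular spheroids at 37 °C. They were treated with POLQ inhibitors (novobiocin, ART-558, RP6685) alone or combined with other agents. Top concentrations were at or near clinical Cmax (otherwise 10 microM; SN-38 at 1 microM), decreasing in half-log steps.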
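Note: spheroids exposed to compounds for one week.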
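Throughout, for viability, T/C: 100% = vehicle DMSO treated spheroids.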

## O=C(Nc1ccc(O)c(NS(=O)(=O)c2ccc(F)cc2)c1)c1ccc(-c2ccccc2)cc1 + Nc1ccc(C#CCN(C(=O)Cc2ncc(C(F)(F)F)cc2C(F)(F)F)c2ccc(F)cc2)nn1
Second compound 0.0316 µM
  IC50: 4.98 µM
Second compound 0.1 µM
  IC50: 4.84 µM
Second compound 0.316 µM
  IC50: 3.59 µM
Second compound 1 µM
  IC50: 4.08 µM
Second compound 3.16 µM
  IC50: 4.07 µM
Second compound 10 µM
  IC50: 3.82 µM
Second compound 0.0316 µM, first compound 0.0316 µM
  viability, T/C: 106%
Second compound 0.0316 µM, first compound 0.1 µM
  viability, T/C: 115%
Second compound 0.0316 µM, first compound 0.316 µM
  viability, T/C: 97%
Second compound 0.0316 µM, first compound 1 µM
  viability, T/C: 106%
Second compound 0.0316 µM, first compound 3.16 µM
  viability, T/C: 68.7%
Second compound 0.0316 µM, first compound 10 µM
  viability, T/C: 21.3%
Second compound 0.1 µM, first compound 0.0316 µM
  viability, T/C: 106%
Second compound 0.1 µM, first compound 0.1 µM
  viability, T/C: 102%
Second compound 0.1 µM, first compound 0.316 µM
  viability, T/C: 94%
Second compound 0.1 µM, first compound 1 µM
  viability, T/C: 102%
Second compound 0.1 µM, first compound 3.16 µM
  viability, T/C: 69.4%
Second compound 0.1 µM, first compound 10 µM
  viability, T/C: 17.1%
Second compound 0.316 µM, first compound 0.0316 µM
  viability, T/C: 104%
Second compound 0.316 µM, first compound 0.1 µM
  viability, T/C: 113%
Second compound 0.316 µM, first compound 0.316 µM
  viability, T/C: 110%
Second compound 0.316 µM, first compound 1 µM
  viability, T/C: 103%
Second compound 0.316 µM, first compound 3.16 µM
  viability, T/C: 53.5%
Second compound 0.316 µM, first compound 10 µM
  viability, T/C: 22.1%
Second compound 1 µM, first compound 0.0316 µM
  viability, T/C: 114%
Second compound 1 µM, first compound 0.1 µM
  viability, T/C: 109%
Second compound 1 µM, first compound 0.316 µM
  viability, T/C: 104%
Second compound 1 µM, first compound 1 µM
  viability, T/C: 105%
Second compound 1 µM, first compound 3.16 µM
  viability, T/C: 58.6%
Second compound 1 µM, first compound 10 µM
  viability, T/C: 19.4%
Second compound 3.16 µM, first compound 0.0316 µM
  viability, T/C: 119%
Second compound 3.16 µM, first compound 0.1 µM
  viability, T/C: 114%
Second compound 3.16 µM, first compound 0.316 µM
  viability, T/C: 101%
Second compound 3.16 µM, first compound 1 µM
  viability, T/C: 111%
Second compound 3.16 µM, first compound 3.16 µM
  viability, T/C: 58.2%
Second compound 3.16 µM, first compound 10 µM
  viability, T/C: 19.9%
Second compound 10 µM, first compound 0.0316 µM
  viability, T/C: 109%
Second compound 10 µM, first compound 0.1 µM
  viability, T/C: 115%
Second compound 10 µM, first compound 0.316 µM
  viability, T/C: 109%
Second compound 10 µM, first compound 1 µM
  viability, T/C: 103%
Second compound 10 µM, first compound 3.16 µM
  viability, T/C: 56.5%
Second compound 10 µM, first compound 10 µM
  viability, T/C: 16.5%
